The values below come from publication PMC3961306, “Comparison of the Cancer Gene Targeting and Biochemical Selectivities of All Targeted Kinase Inhibitors Approved for Clinical Use” (PLoS ONE, 2014).

Where two headings read alike, the source gives them in different places.

Assay in all cases: Kinase profiling in a biochemical assay panel (mobility shift assays and ELISA), %-inhibition at 1 μM; selectivity entropy
(In general: An ELISA detects its analyte on a solid surface through an enzyme-linked reagent.)

Assay [1] concerns the target T1, panel of more than 300 wild-type and mutant kinases (313 kinase panel) (Homo sapiens, UniProt O14965).
T1 sequence (O14965 1-403): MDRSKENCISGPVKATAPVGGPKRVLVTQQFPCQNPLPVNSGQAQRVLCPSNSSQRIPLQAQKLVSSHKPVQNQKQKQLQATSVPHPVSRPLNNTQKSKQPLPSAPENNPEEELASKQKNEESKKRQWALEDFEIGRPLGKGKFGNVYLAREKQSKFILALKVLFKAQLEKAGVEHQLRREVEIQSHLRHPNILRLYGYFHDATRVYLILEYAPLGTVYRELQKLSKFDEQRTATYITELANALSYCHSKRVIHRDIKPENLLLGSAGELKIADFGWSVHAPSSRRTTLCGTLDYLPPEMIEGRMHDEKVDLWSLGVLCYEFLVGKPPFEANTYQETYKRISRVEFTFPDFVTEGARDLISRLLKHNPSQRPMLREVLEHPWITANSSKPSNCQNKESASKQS
The conditions noted are these: 1 μM compound; for %-inhibition, AurA/TPX2: kinase AurA/TPX2; for %-inhibition, AurA: kinase AurA.

Assay [2] concerns the target panel of more than 300 wild-type and mutant kinases (313 kinase panel) (Homo sapiens, UniProt O60674). Particulars: kinase JAK2; compound at 1 μM.
Assay [3] has as its target panel of more than 300 wild-type and mutant kinases (313 kinase panel) (Homo sapiens, UniProt O75676). The conditions noted are these: kinase MSK2; 1 μM.
Assay [4] concerns the target panel of more than 300 wild-type and mutant kinases (313 kinase panel) (Homo sapiens, UniProt P08581). The conditions noted are these: kinase MET; compound at 1 μM.
Assay [5] addresses panel of more than 300 wild-type and mutant kinases (313 kinase panel) (Homo sapiens, UniProt P22694).
For assay [6], the target named is panel of more than 300 wild-type and mutant kinases (313 kinase panel) (Homo sapiens, UniProt P51812). The conditions noted are these: kinase RSK2; 1 μM.
Assay [7] concerns the target panel of more than 300 wild-type and mutant kinases (313 kinase panel) (Homo sapiens, UniProt P53350). The conditions noted are these: kinase PLK1; 1 μM.
The target of assay [8] is T2, panel of more than 300 wild-type and mutant kinases (313 kinase panel) (Homo sapiens, UniProt Q13163).
T2 sequence (Q13163 1-448): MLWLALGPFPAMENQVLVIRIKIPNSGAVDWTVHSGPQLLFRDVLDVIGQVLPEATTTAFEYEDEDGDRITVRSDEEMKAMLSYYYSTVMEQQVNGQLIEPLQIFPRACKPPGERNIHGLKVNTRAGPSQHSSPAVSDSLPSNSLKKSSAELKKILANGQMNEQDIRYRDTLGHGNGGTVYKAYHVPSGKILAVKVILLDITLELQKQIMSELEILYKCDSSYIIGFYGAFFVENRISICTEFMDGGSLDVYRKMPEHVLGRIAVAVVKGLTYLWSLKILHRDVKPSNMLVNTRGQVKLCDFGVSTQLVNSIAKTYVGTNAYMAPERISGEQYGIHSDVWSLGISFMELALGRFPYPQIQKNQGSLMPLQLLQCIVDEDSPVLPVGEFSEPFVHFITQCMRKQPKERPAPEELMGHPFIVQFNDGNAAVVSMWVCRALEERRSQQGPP
Particulars: kinase MAP2K5; compound at 1 μM.

For assay [9], the target named is T3, panel of more than 300 wild-type and mutant kinases (313 kinase panel) (Homo sapiens, UniProt Q8IW41).
T3 sequence (Q8IW41 1-473): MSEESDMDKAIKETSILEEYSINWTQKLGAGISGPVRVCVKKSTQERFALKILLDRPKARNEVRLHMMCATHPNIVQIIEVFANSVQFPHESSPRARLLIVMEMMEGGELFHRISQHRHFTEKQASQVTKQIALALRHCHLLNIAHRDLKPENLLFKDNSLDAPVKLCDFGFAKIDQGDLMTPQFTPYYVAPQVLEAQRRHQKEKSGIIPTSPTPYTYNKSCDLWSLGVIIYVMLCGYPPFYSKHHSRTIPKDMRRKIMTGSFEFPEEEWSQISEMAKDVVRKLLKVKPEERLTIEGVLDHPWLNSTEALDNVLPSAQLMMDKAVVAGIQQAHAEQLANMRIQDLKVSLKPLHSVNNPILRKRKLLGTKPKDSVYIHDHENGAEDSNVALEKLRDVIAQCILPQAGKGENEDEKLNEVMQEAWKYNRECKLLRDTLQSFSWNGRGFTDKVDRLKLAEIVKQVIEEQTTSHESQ
Particulars: kinase MAPKAPK5; compound at 1 μM.

Assay [10] deals with panel of more than 300 wild-type and mutant kinases (313 kinase panel) (Homo sapiens, UniProt Q9H4A3). The conditions noted are these: kinase WNK1; compound at 1 μM.
panel of more than 300 wild-type and mutant kinases (313 kinase panel) (Homo sapiens, UniProt Q9H4A3), sequence (Q9H4A3 whole entry, change not shown): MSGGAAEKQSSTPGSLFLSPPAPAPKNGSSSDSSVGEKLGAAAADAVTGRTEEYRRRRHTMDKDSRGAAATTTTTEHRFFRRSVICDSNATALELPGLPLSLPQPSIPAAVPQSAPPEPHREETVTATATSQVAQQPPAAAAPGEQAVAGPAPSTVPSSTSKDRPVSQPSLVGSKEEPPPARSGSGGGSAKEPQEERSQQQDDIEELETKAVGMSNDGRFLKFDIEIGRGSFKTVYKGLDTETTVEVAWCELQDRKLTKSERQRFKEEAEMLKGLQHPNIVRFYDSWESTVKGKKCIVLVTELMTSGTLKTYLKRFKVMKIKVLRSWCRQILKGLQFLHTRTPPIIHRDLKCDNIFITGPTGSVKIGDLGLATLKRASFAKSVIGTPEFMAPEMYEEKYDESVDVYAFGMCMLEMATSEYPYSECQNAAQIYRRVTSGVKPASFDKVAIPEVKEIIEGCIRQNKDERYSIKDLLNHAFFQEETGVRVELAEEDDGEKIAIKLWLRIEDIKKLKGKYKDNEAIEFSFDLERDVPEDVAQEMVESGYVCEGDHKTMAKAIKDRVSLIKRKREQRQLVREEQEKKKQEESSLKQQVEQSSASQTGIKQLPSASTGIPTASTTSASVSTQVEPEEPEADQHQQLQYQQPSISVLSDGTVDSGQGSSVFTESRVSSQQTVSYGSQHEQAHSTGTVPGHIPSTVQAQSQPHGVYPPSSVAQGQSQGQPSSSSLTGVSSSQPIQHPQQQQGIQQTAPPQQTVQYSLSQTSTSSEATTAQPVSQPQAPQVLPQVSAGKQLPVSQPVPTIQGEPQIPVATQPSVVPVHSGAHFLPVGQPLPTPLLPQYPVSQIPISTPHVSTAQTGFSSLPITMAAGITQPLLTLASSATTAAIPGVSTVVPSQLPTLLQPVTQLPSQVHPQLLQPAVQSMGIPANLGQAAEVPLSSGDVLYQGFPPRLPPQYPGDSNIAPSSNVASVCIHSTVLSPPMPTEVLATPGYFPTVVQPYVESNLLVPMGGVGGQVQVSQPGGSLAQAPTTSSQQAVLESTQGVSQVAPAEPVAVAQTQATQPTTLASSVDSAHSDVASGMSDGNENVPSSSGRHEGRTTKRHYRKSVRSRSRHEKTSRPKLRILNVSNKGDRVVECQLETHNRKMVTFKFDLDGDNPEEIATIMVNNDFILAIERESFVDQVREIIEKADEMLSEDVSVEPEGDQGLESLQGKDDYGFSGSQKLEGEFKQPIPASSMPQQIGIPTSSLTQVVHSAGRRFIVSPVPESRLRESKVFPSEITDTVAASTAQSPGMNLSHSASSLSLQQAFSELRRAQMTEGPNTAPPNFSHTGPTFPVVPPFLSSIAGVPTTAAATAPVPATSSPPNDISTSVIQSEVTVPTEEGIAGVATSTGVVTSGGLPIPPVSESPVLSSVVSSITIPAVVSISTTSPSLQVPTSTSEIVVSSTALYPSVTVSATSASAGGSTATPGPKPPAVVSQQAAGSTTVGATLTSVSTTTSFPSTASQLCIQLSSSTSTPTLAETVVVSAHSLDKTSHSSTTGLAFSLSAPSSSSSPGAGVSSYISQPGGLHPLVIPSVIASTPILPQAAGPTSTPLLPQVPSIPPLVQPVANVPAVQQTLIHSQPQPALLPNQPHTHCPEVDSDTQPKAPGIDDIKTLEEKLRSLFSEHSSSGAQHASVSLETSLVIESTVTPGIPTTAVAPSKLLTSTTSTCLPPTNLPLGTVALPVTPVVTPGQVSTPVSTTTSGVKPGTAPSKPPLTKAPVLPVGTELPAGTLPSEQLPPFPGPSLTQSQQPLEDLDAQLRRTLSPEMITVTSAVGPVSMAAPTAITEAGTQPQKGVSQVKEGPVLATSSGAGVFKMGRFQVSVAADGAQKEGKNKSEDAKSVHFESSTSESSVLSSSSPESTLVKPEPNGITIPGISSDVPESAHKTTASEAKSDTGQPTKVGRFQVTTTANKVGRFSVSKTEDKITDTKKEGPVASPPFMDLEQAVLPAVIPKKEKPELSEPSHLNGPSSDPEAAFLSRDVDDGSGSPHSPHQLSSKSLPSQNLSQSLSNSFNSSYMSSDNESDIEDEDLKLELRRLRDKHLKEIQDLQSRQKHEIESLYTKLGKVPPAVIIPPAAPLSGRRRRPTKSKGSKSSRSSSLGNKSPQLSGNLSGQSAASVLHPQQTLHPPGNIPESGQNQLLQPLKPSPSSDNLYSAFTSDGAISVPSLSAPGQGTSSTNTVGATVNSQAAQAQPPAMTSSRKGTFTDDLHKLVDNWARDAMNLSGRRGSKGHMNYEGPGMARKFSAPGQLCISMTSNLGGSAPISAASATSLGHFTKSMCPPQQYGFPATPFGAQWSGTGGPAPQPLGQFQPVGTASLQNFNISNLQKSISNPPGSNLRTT
Assay [11] deals with panel of more than 300 wild-type and mutant kinases (313 kinase panel) (Homo sapiens, UniProt Q9UM73). Particulars: kinase ALK; 1 μM compound.
For assay [12], the system named is panel of more than 300 wild-type and mutant kinases (313 kinase panel). The conditions noted are these: for %-inhibition of EGFR(d746-750): kinase EGFR(d746-750); for %-inhibition of EGFR(d746-750/T790M): kinase EGFR(d746-750/T790M).
[13] abbreviates: kinase EML4-ALK, compound at 1 μM.

panel of more than 300 wild-type and mutant kinases (313 kinase panel) (Homo sapiens, UniProt O60674), sequence (O60674 whole entry, change not shown): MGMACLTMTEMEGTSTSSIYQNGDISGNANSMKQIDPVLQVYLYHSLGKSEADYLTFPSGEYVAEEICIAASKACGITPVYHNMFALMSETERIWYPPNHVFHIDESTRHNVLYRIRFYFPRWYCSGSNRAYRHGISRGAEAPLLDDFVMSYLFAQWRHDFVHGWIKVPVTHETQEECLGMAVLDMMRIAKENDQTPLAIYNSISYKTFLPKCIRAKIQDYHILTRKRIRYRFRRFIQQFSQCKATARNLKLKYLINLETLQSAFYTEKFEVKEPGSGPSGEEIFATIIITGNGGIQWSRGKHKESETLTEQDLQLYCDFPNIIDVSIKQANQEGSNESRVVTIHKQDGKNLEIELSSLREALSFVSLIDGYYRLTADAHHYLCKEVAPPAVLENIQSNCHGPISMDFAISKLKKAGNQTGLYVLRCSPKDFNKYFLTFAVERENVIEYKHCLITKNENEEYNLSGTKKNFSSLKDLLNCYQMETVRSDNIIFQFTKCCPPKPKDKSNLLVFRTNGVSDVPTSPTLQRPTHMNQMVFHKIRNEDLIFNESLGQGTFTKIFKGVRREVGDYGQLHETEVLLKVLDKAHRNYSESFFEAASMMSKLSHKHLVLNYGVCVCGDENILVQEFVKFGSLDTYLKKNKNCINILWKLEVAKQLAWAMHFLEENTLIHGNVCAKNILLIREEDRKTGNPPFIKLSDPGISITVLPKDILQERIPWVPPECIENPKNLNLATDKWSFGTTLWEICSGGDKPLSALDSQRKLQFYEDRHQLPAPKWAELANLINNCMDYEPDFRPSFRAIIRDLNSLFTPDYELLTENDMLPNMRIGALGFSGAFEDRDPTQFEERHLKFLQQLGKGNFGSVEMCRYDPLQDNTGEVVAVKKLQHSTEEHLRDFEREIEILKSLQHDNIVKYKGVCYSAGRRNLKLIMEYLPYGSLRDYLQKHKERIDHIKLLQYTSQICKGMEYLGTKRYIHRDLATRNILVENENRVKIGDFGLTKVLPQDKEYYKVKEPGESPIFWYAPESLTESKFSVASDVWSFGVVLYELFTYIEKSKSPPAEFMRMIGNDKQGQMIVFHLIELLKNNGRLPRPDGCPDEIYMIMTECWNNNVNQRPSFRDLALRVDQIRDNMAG

For the molecule `Cc1cn(-c2cc(NC(=O)c3ccc(C)c(Nc4nccc(-c5cccnc5)n4)c3)cc(C(F)(F)F)c2)cn1` [nilotinib], in assay [1], the “%-inhibition, AurA/TPX2” value is -9% and the “%-inhibition, AurA” value is reported as -5.43%. Further, the “%-inhibition of JAK2” value in assay [2] came out at 19%. Further, in assay [3], the “%-inhibition of MSK2” value is listed as 2.55%. Also, the “%-inhibition of MET” value in [4] is -9%. In assay [5] (1 µM), the “%-inhibition of PKACβ” value came out at 28%. Further, in assay [6], the “%-inhibition of RSK2” value turned out to be 13%. In addition, in assay [7], the “%-inhibition of PLK1” value is -2.41%. Further, in assay [8], the “%-inhibition of MAP2K5” value is -7.56%. Also, the “%-inhibition of MAPKAPK5” value in assay [9] is -4.26%. The “%-inhibition of WNK1” value in assay [10] is reported as -0.88%. For the same molecule, the “%-inhibition, ALK” value in assay [11] is given as -8%. Besides, in assay [12], the “%-inhibition of NPM1-ALK” value is -64% and the “%-inhibition of TAK1-TAB1” value was 5%. Moreover, in [12] (1 µM), the “%-inhibition of EML4-ALK” value is listed as -12%, the “%-inhibition of LYNb” value is on record as 85%, the “%-inhibition of PKCβ2” value came out at 1.66% and the “%-inhibition of SRM” value is 27%.
For the molecule `CNC(=O)c1cc(Oc2ccc(NC(=O)Nc3ccc(Cl)c(C(F)(F)F)c3)c(F)c2)ccn1` [regorafenib], in assay [1], the “%-inhibition, AurA/TPX2” value is listed as -4% and the “%-inhibition, AurA” value is on record as 7%. In assay [2], the “%-inhibition of JAK2” value is on record as 33%. In addition, the “%-inhibition of MSK2” value in [3] was 2.43%. Besides, the “%-inhibition of MET” value in assay [4] was determined as 2.12%. Besides, the “%-inhibition of PKACβ” value in assay [5] (kinase PKACβ, 1 μM) is listed as -0.531%. Moreover, the “%-inhibition of RSK2” value in assay [6] worked out at 6.66%. In addition, the “%-inhibition of PLK1” value in assay [7] is -0.767%. The “%-inhibition of MAP2K5” value in assay [8] stood at 17%. Further, the “%-inhibition of MAPKAPK5” value in [9] is -9%. The “%-inhibition of WNK1” value in assay [10] was -4%. Besides, the “%-inhibition, ALK” value in [11] is recorded as -3.43%. Moreover, in assay [12] (compound at 1 μM), the “%-inhibition of EGFR(d746-750)” value is listed as 12% and the “%-inhibition of EGFR(d746-750/T790M)” value was 3.63%. In assay [12] (setting [13]), the “%-inhibition of EML4-ALK” value is listed as -7%. Moreover, the “%-inhibition of LYNb” value in [12] (kinase LYNb, compound at 1 μM) was determined as 85%. In assay [12] (kinase NPM1-ALK, 1 μM), the “%-inhibition of NPM1-ALK” value was -7%. Moreover, in [12] (kinase PKCβ2, 1 μM), the “%-inhibition of PKCβ2” value is given as -9%. In addition, the “%-inhibition of SRM” value in assay [12] (kinase SRM, 1 μM) is 66%. For the same molecule, the “%-inhibition of TAK1-TAB1” value in [12] (kinase TAK1-TAB1, 1 μM) is recorded as 60%.
On to `CCCS(=O)(=O)Nc1ccc(F)c(C(=O)c2c[nH]c3ncc(-c4ccc(Cl)cc4)cc23)c1F` [vemurafenib], for which, in assay [1], the “%-inhibition, AurA/TPX2” value was -2.59% and the “%-inhibition, AurA” value is recorded as 23%. For the same molecule, in assay [2], the “%-inhibition of JAK2” value amounted to 18%. For the same molecule, in assay [3], the “%-inhibition of MSK2” value is given as -1%. Besides, the “%-inhibition of MET” value in [4] is 3.67%. In assay [5] (kinase PKACβ, 1 μM), the “%-inhibition of PKACβ” value was 2.66%. In [6], the “%-inhibition of RSK2” value was -2.31%. The “%-inhibition of PLK1” value in assay [7] is reported as -4%. Moreover, the “%-inhibition of MAP2K5” value in assay [8] was found to be 32%. The “%-inhibition of MAPKAPK5” value in assay [9] is 12%. In addition, the “%-inhibition of WNK1” value in assay [10] worked out at 10%. Further, the “%-inhibition, ALK” value in assay [11] was 1.14%. In addition, in assay [12] (compound at 1 μM), the “%-inhibition of EGFR(d746-750)” value is recorded as 2.81% and the “%-inhibition of EGFR(d746-750/T790M)” value stood at 4.62%. In [12] (setting [13]), the “%-inhibition of EML4-ALK” value is -1.53%. Further, the “%-inhibition of LYNb” value in assay [12] (kinase LYNb, compound at 1 μM) was 62%. Besides, in assay [12] (kinase NPM1-ALK, 1 μM), the “%-inhibition of NPM1-ALK” value is listed as -1.72%. For the same molecule, in assay [12] (kinase PKCβ2, 1 μM), the “%-inhibition of PKCβ2” value was -3%. The “%-inhibition of SRM” value in assay [12] (kinase SRM, 1 μM) was determined as 102%. Further, in assay [12] (kinase TAK1-TAB1, 1 μM), the “%-inhibition of TAK1-TAB1” value worked out at 9%.
